Reference: US10981932B2, “Macrocyclic indole derivatives” (Bayer Aktiengesellschaft, priority 2016, dated 2021)
Counter-ions that a name gives are not always drawn. Like-named read-outs stand apart in the source and are kept apart here.

What was measured:
MCL-1 = MCL-1 (Homo sapiens, UniProt Q07820); assay: Protein-protein interaction assay MCL-1/Noxa BH3 peptide (MCL-1 assay), TR-FRET; assay type: binding; settings: MBP-MCL-1 / Noxa BH3-derived peptide, median
Method in brief: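 IC50 came from a 4-parameter fit of the normalized 665/620 nm TR-FRET ratio (anti-MBP Eu-cryptate/streptavidin-XL665). Compounds (0.1 nM–20 μM, duplicates) were preincubated 10 min at 22 °C with 1 nM MBP-MCL-1 in pH 7 Tris/NaCl/KF buffer, then read after 1 h at 22 °C plus overnight at 4 °C.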

SUDHL5 [1] = assay: Induction of caspase-3/7 activity (Caspase-Glo 3/7), SUDHL5; assay type: cell-based; settings: caspase-3/7 induction, SUDHL5 cells, 3 h treatment, median
Method in brief: (§1)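 DLBCL lines SUDHL5 and SUDHL10 treated with compounds for 3 h at 37 °C; caspase-3/7 activity read by Caspase-Glo 3/7 luminescence. Medium-only background subtracted; EC50 fitted with bottom fixed at 1 and top fixed at the reference compound's maximal induction.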

SUDHL10 [2] = assay: Induction of caspase-3/7 activity (Caspase-Glo 3/7), SUDHL10; assay type: cell-based; settings: caspase-3/7 induction, SUDHL10 cells, 3 h treatment, median
Method in brief: as §1

SUDHL5 [3] = assay: Anti-proliferative effect (CellTiter-Glo, 72 h), SUDHL5; assay type: cell-based; settings: SUDHL5 cells, antiproliferation, median, read-out: Antiproli SUDHL5 [M] (median)
Method in brief: (§2)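 Cells plated and incubated with compounds for 72 h at 37 °C, with a parallel day 0 reference plate for time-zero signal. Viability read by CellTiter-Glo luminescence after 10 min, measured identically on the day 0 and 72 h plates.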

SUDHL10 [4] = assay: Anti-proliferative effect (CellTiter-Glo, 72 h), SUDHL10; assay type: cell-based; settings: SUDHL10 cells, antiproliferation, median, read-out: Antiproli SUDHL10 [M] (median)
Method in brief: as §2

A2780 = assay: Anti-proliferative effect (CellTiter-Glo, 72 h), A2780; assay type: cell-based; settings: A2780 cells, median, read-out: IC50 antiproliferation assay A2780 [M] (median)
Method in brief: as §2

SUDHL5 [5] = assay: Induction of cytotoxicity (CellTiter-Glo, 5 h), SUDHL5
SUDHL10 [6] = assay: Induction of cytotoxicity (CellTiter-Glo, 5 h), SUDHL10
[7] = read-out: Cytotox SUDHL5 [M] (median), SUDHL5 cells, cytotoxicity induction, CellTiter-Glo, 5 h incubation, median
[8] = read-out: Cytotox SUDHL10 [M] (median), SUDHL10 cells, cytotoxicity induction, CellTiter-Glo, 5 h incubation, median
[9] = Homo sapiens, SU-DHL-5, 72 h, 72 h
[10] = Homo sapiens, SU-DHL10, 72 h, 72 h
[11] = Homo sapiens, SU-DHL-5, 5 h, read-out: Cytotox SUDHL5 [M] (median), SUDHL5 cells, cytotoxicity induction, CellTiter-Glo, 5 h, median
[12] = Homo sapiens, SU-DHL10, 5 h, read-out: Cytotox SUDHL10 [M] (median), SUDHL10 cells, cytotoxicity induction, CellTiter-Glo, 5 h, median
[13] = read-out: Cytotox SUDHL10 [M] (median), SUDHL10 cells, cytotoxicity induction, CellTiter-Glo, 5 h, median
[14] = Homo sapiens, SU-DHL10, 72 h, 72 h incubation
[15] = Homo sapiens, SU-DHL-5, 5 h, read-out: Cytotox SUDHL5 [M] (median), SUDHL5 cells, cytotoxicity induction, CellTiter-Glo, 5 h incubation, median
[16] = Homo sapiens, SU-DHL10, 5 h, read-out: Cytotox SUDHL10 [M] (median), SUDHL10 cells, cytotoxicity induction, CellTiter-Glo, 5 h incubation, median

MCL-1, sequence (Q07820 whole entry): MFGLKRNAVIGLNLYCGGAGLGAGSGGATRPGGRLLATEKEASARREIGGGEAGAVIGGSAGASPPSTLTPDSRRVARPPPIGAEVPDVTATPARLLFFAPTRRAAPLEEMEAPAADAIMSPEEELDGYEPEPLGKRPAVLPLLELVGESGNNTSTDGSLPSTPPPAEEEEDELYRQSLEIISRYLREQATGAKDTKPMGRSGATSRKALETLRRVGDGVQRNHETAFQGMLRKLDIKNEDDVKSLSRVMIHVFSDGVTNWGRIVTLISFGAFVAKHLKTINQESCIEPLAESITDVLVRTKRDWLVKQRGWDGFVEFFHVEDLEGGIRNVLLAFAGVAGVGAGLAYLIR

| Compound | IC50 (MCL-1) | EC50 (SUDHL10 [2]) | EC50 (SUDHL5 [1]; Homo sapiens, SU-DHL-5, 3 h) | EC50 (SUDHL10 [2]; Homo sapiens, SU-DHL10, 3 h) | IC50 (SUDHL5 [3]; [9]) | IC50 (SUDHL10 [4]; [10]) | IC50 (A2780; Homo sapiens, A2780, 72 h) | IC50 (SUDHL5 [5]; [11]) | IC50 (SUDHL10 [6]; [12]) | further results |
| --- | --- | --- | --- | --- | --- | --- | --- | --- | --- | --- |
| CN1CCCn2c(C(=O)O)c(CCCOc3cccc4ccccc34)c3cccc(c32)-c2c(nn(C)c2C(F)(F)F)C1 (racemic) [Example 324, (rac)-7,10-dimethyl-1-[3-(naphthalen-1-yloxy)propyl]-11-(trifluoromethyl)-4,5,6,7,8,10-hexahydropyrazolo[3′,4′:7,8][1,5]diazecino[9,10,1-hi]indole-2-carboxylic Acid] | 0.027 µM | > 33 µM | > 33 µM | 32.1 µM | 1.59e-05 M | 1.62e-05 M | 2.46e-05 M | 2.92e-05 M | 2.68e-05 M | IC50 (SUDHL10 [6]; [13]): > 3.3e-05 M |
| Cc1ccc2c(C(C)CCOc3cccc4c3CCCC4)c(C(=O)O)n3c2c1-c1c(nn(C)c1C)COCCCC3 (racemic) [Example 363, 11,12,13-trimethyl-1-(4-((5,6,7,8-tetrahydronaphthalen-1-yl)oxy)butan-2-yl)-4,5,6,7,9,11-hexahydropyrazolo[4′,3′:9,10][1,6]oxaazacycloundecino[8,7,6-hi]indole-2-carboxylic Acid (Mixture of Stereoisomers)] | 0.042 µM | – | 20.2 µM | 23.1 µM | 1.14e-05 M | 1.13e-05 M | 1.54e-05 M | 1.68e-05 M | 2.97e-05 M | – |
| COc1ccc(OCc2nn(C)c3c2-c2cccc4c(CCCOc5cccc6ccccc56)c(C(=O)O)n(c24)CCCCOC3)cc1 (racemic) [Example 319, (rac)-3-[(4-methoxyphenoxy)methyl]-1-methyl-7-[3-(naphthalen-1-yloxy)propyl]-1,10,11,12,13,15-hexahydropyrazolo[4′,3′:9,10][1,6]oxazacycloundecino[8,7,6-hi]indole-8-carboxylic Acid] | 0.0371 µM | – | 18.4 µM | 30.7 µM | 1.21e-05 M | 5.93e-06 M | 1.26e-05 M | 2.11e-05 M | 2.83e-05 M | – |
| Cn1nc(CN2CCCC2)c2c1COCCCCn1c(C(=O)O)c(CCCOc3cccc4ccccc34)c3cccc-2c31 (single isomer, unassigned; enantiomer 2) [Example 337, 1-methyl-7-[3-(naphthalen-1-yloxy)propyl]-3-(pyrrolidin-1-ylmethyl)-1,10,11,12,13,15-hexahydropyrazolo[4′3′:9,10][1,6]oxazacycloundecino[8,7,6-hi]indole-carboxylic Acid (Enantiomer 2)] | 0.977 µM | > 33 µM | – | – | – | – | – | – | – | EC50 (SUDHL5 [1]): > 33 µM; IC50 (SUDHL5 [3]; 72 h): 1.97e-05 M; IC50 (SUDHL10 [4]; 72 h): > 3.3e-05 M; IC50 (A2780): > 3.3e-05 M; IC50 (SUDHL5 [5]; read-out: Cytotox SUDHL5 [M] (median), SUDHL5 cells, cytotoxicity induction, CellTiter-Glo, 5 h, median): > 3.3e-05 M; IC50 (SUDHL10 [6]; [13]): > 3.3e-05 M |
| CC(=O)N(C)Cc1nn(C)c2c1-c1cccc3c(CCCOc4cccc5ccccc45)c(C(=O)O)n(c13)CCCCOC2 (racemic) [Example 342, (rac)-3-{[acetyl(methyl)amino]methyl}-1-methyl-7-[3-(naphthalen-1-yloxy)propyl]-1,10,11,12,13,15-hexahydropyrazolo[4′,3′:9,10][1,6]oxazacycloundecino[8,7,6-hi]indole-8-carboxylic Acid] | 0.0451 µM | – | 25 µM | > 33 µM | 3.15e-05 M | 1.9e-05 M | > 3.3e-05 M | > 3.3e-05 M | > 3.3e-05 M | – |
| Cn1nc(CN2CC(F)(F)C2)c2c1COCCCCn1c(C(=O)O)c(CCCOc3cccc4ccccc34)c3cccc-2c31 (racemic) [Example 180, (rac)-3-[(3,3-difluoroazetidin-1-yl)methyl]-1-methyl-7-[3-(naphthalen-1-yloxy)propyl]-1,10,11,12,13,15-hexahydropyrazolo[4′,3′:9,10][1,6]oxazacycloundecino[8,7,6-hi]indole-8-carboxylic Acid] | 0.0177 µM | – | 14.5 µM | 28.2 µM | – | – | 2.36e-05 M | – | – | IC50 (SUDHL5 [3]; Homo sapiens, SU-DHL-5, 72 h, 72 h incubation): 7.77e-06 M; IC50 (SUDHL10 [4]; [14]): 8.97e-06 M; IC50 (SUDHL5 [5]; [15]): 1.1e-05 M; IC50 (SUDHL10 [6]; [16]): 3.11e-05 M |

Now from value to compound, other results behind:

| IC50 (MCL-1) | EC50 (SUDHL10 [2]) | EC50 (SUDHL5 [1]; Homo sapiens, SU-DHL-5, 3 h) | EC50 (SUDHL10 [2]; Homo sapiens, SU-DHL10, 3 h) | IC50 (SUDHL5 [3]; [9]) | IC50 (SUDHL10 [4]; [10]) | IC50 (A2780; Homo sapiens, A2780, 72 h) | Compound | IC50 (SUDHL5 [5]; [11]) | IC50 (SUDHL10 [6]; [12]) | further results |
| --- | --- | --- | --- | --- | --- | --- | --- | --- | --- | --- |
| 0.0427 µM | > 33 µM | – | – | – | – | – | O=C(O)c1c(CCCOc2cccc3ccccc23)c2cccc3c2n1CCCCOCc1nn2c(c1-3)OCCC2 (single isomer, unassigned) [Example 249, 1-[3-(naphthalen-1-yloxy)propyl]-4,5,6,7,13,14-hexahydro-9H,12H-[1,3]oxazino[3″,2″:1′,5′]pyrazolo[4′,3′:9,10][1,6]oxazacycloundecino[8,7,6-hi]indole-2-carboxylic Acid] | – | – | EC50 (SUDHL5 [1]): > 33 µM; IC50 (SUDHL5 [3]; 72 h incubation): 1.79e-05 M; IC50 (SUDHL10 [4]; 72 h incubation): 7.58e-06 M; IC50 (A2780): 1.82e-05 M; IC50 (SUDHL5 [5]; [7]): > 3.3e-05 M; IC50 (SUDHL10 [6]; [8]): > 3.3e-05 M |
| 0.669 µM | > 33 µM | – | – | – | – | 1.9e-05 M | Cc1ccc2c(C(C)CCOc3cccc4ccccc34)c(C(=O)O)n3c2c1-c1c(C)nn(C)c1COCCCC3 (single isomer, unassigned) [Example 257, 1,3,4-trimethyl-7-[4-(naphthalen-1-yloxy)butan-2-yl]-1,10,11,12,13,15-hexahydropyrazolo[4′,3′:9,10][1,6]oxazacycloundecino[8,7,6-hi]indole-carboxylic Acid] | – | – | EC50 (SUDHL5 [1]): > 33 µM; IC50 (SUDHL5 [3]; 72 h incubation): 2e-05 M; IC50 (SUDHL10 [4]; 72 h incubation): 8.12e-06 M; IC50 (SUDHL5 [5]; [7]): > 3.3e-05 M; IC50 (SUDHL10 [6]; [8]): > 3.3e-05 M |
| 0.132 µM | – | > 33 µM | > 33 µM | > 3.3e-05 M | > 3.3e-05 M | > 3.3e-05 M | Cn1nc(CN2CCCC2)c2c1COCCCCn1c(C(=O)O)c(CCCOc3cccc4ccccc34)c3cccc-2c31 (single isomer, unassigned; enantiomer 1) [Example 336, 1-methyl-7-[3-(naphthalen-1-yloxy)propyl]-3-(pyrrolidin-1-ylmethyl)-1,10,11,12,13,15-hexahydropyrazolo[4′,3′:9,10][1,6]oxazacycloundecino[8,7,6-hi]indole-8-carboxylic Acid (Enantiomer 1)] | > 3.3e-05 M | > 3.3e-05 M | – |
| 0.0133 µM | – | 27.5 µM | > 33 µM | – | – | > 3.3e-05 M | Cn1nc(CCN2CCOCC2)c2c1COCCCCn1c(C(=O)O)c(CCCOc3cccc4ccccc34)c3cccc-2c31 (single isomer, unassigned; enantiomer 1) [Example 151, 1-methyl-3-[2-(morpholin-4-yl)ethyl]-7-[3-(naphthalen-1-yloxy)propyl]-1,10,11,12,13,15-hexahydropyrazolo[4′,3′:9,10][1,6]oxazacycloundecino[8,7,6-hi]indole-8-carboxylic acid-N-ethylethanamine Salt (Enantiomer 1)] | – | – | IC50 (SUDHL5 [3]; 72 h incubation): > 3.3e-06 M; IC50 (SUDHL10 [4]; [14]): 2.01e-05 M; IC50 (SUDHL5 [5]; [15]): 1.91e-05 M; IC50 (SUDHL10 [6]; [16]): > 3.3e-05 M |
| 3 µM | – | > 33 µM | > 33 µM | > 3.3e-05 M | > 3.3e-05 M | > 3.3e-05 M | Cn1nc(CN2CCCC2=O)c2c1COCCCCn1c(C(=O)O)c(CCCOc3cccc4ccccc34)c3cccc-2c31 (single isomer, unassigned; enantiomer 2) [Example 329, 1-methyl-7-[3-(naphthalen-1-yloxy)propyl]-3-[(2-oxopyrrolidin-1-yl)methyl]-1,10,11,12,13,15-hexahydropyrazolo[4′,3′:9,10][1,6]oxazacycloundecino[8,7,6-hi]indole-8-carboxylic Acid (Enantiomer 2)] | > 3.3e-05 M | > 3.3e-05 M | – |
